Patent US6221865A, “Inhibitors of protein isoprenyl transferases” (priority 1998, dated 2001)

Molecular target: T1, protein farnesyltransferase (Rattus norvegicus, UniProt Q02293+Q04631)
T1 construct: The enzyme is purified according to Reiss, Y., et al., Cell, 62: 81-88 (1990), utilizing steps one through three; from tissue; host or cells: rat brain
Assay: Inhibition of farnesyltransferase (scintillation proximity assay, rat brain enzyme, biotin-K Ras B fragment substrate)
Type: biochemical
Conditions: for % inhibition of farnesyltransferase at 1 × 10^-6 M: 1 × 10^-6 M (Table 2); for % inhibition of farnesyltransferase at 1 × 10^-5 M: 1 × 10^-5 M (Table 1); for % inhibition of farnesyltransferase at 1 × 10^-7 M: 1 × 10^-7 M (Table 3)
In short: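 Enzyme from rat brain, partly purified (steps one to three), assayed by SPA kit using 0.1 mM final biotin-K Ras B peptide as prenyl acceptor rather than biotin-lamin. Activity given as percent inhibition.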

T1 sequence (Q02293 whole entry, one chain of several): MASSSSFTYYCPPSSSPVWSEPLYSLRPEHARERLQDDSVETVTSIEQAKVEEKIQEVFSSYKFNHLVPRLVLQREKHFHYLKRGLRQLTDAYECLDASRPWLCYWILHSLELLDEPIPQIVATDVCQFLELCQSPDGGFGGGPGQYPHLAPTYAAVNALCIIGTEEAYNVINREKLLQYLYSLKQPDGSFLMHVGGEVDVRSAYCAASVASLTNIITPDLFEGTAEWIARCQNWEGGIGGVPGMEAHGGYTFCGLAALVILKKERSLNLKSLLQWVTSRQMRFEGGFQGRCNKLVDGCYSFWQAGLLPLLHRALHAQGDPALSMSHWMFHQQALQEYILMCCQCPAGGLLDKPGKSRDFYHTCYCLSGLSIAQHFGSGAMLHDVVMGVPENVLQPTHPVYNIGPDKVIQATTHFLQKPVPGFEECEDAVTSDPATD

SMILES | % inhibition of farnesyltransferase at 1 × 10^-6 M | % inhibition of farnesyltransferase at 1 × 10^-5 M | also measured
CSCC[C@H](NC(=O)c1ccc(CN[C@H](/C=C\CC(C)C)CC2CCCCC2)cc1-c1ccccc1)C(=O)O [Example 666] | 82% |  | 
CSCC[C@H](NC(=O)c1ccc(CNc2cccc(OC(F)(F)F)c2)cc1-c1ccccc1)C(=O)O [Example 678] |  | 73% | 
CSCC[C@H](NC(=O)c1ccc(CNc2ccc(OC(F)(F)F)cc2)cc1-c1ccccc1)C(=O)O [Example 691] | 34% |  | 
CSCC[C@H](NC(=O)c1ccc(CNc2ccc(C(O)(C(F)(F)F)C(F)(F)F)cc2)cc1-c1ccccc1)C(=O)O [Example 693] | 53% |  | 
CSCC[C@H](NC(=O)c1ccc(CNc2ccc(N3CCCCC3)cc2)cc1-c1ccccc1)C(=O)O [Example 697] | 39% |  | 
CSCC[C@H](NC(=O)c1ccc(CNc2ccc(C3CCCCC3)cc2)cc1-c1ccccc1)C(=O)O [Example 699] |  | 74% | 
CSCC[C@H](NC(=O)c1ccc(CNc2ccc(-c3nc4ccccc4s3)cc2)cc1-c1ccccc1)C(=O)O [Example 703] | 40% |  | 
CSCC[C@H](NC(=O)c1ccc(CNc2ccc3c(c2)CCC3)cc1-c1ccccc1)C(=O)O [Example 705] |  | 72% | 
CSCC[C@H](NC(=O)c1ccc(CNc2cc(C)cc(C)c2)cc1-c1ccccc1)C(=O)O [Example 709] |  | 55% | 
CSCC[C@H](NC(=O)c1ccc(CNc2cc(C(=O)O)cc(C(=O)O)c2)cc1-c1ccccc1)C(=O)O [Example 710] |  | 45% | 
CCN(Cc1ccc(C(=O)N[C@@H](CCSC)C(=O)O)c(-c2ccccc2)c1)Cc1cc([N+](=O)[O-])ccc1O [Example 711] |  | 46% | 
CSCC[C@H](NC(=O)c1ccc(CN[C@H](CC2CCCCC2)[C@H](O)[C@H](O)CC(C)C)cc1-c1ccccc1)C(=O)O [Example 715] |  | 67% | 
CSCC[C@H](NC(=O)c1ccc(CN[C@@H](CC2CCCCC2)[C@@H](O)[C@@H](O)CC(C)C)cc1-c1ccccc1)C(=O)O [Example 716] | 69% |  | 
CSCC[C@H](NC(=O)c1ccc(CN(C)CC(O)CO)cc1-c1ccccc1C)C(=O)O (some centres unmarked) [Example 719] | 90% |  | 
CCc1nnc(NCc2ccc(C(=O)N[C@@H](CCSC)C(=O)O)c(-c3ccccc3C)c2)s1 [Example 723] | 87% |  | 
COC(=O)c1cscc1NCc1ccc(C(=O)N[C@@H](CCSC)C(=O)O)c(-c2ccccc2C)c1 [Example 724] | 87% |  | 

SMILES | % inhibition of farnesyltransferase at 1 × 10^-6 M | % inhibition of farnesyltransferase at 1 × 10^-5 M | also measured
CSCC[C@H](NC(=O)c1ccc(CNc2ccc(S(=O)(=O)Nc3onc(C)c3C)cc2)cc1-c1ccccc1C)C(=O)O [Example 726] | 81% |  | 
CSCC[C@H](NC(=O)c1ccc(CSC2=NCCS2)cc1-c1ccccc1C)C(=O)O [Example 730] |  |  | % inhibition of farnesyltransferase at 1 × 10^-7 M: 96%
CSCC[C@H](NC(=O)c1ccc(CSc2nc3ccccc3[nH]2)cc1-c1ccccc1C)C(=O)O [Example 732] |  |  | % inhibition of farnesyltransferase at 1 × 10^-7 M: 84%
CSCC[C@H](NC(=O)c1ccc(CSc2nc3cc(C)ccc3[nH]2)cc1-c1ccccc1C)C(=O)O [Example 733] |  |  | % inhibition of farnesyltransferase at 1 × 10^-7 M: 60%
CSCC[C@H](NC(=O)c1ccc(CSc2nnc(N)s2)cc1-c1ccccc1C)C(=O)O [Example 734] |  |  | % inhibition of farnesyltransferase at 1 × 10^-7 M: 49%
CSCC[C@H](NC(=O)c1ccc(CSc2nnc[nH]2)cc1-c1ccccc1C)C(=O)O [Example 735] |  |  | % inhibition of farnesyltransferase at 1 × 10^-7 M: 96%
CSCC[C@H](NC(=O)c1ccc(CSc2ccccc2C(C)C)cc1-c1ccccc1C)C(=O)O [Example 739] |  |  | % inhibition of farnesyltransferase at 1 × 10^-7 M: 83%
CSCC[C@H](NC(=O)c1ccc(CSc2ccc(F)cc2)cc1-c1ccccc1C)C(=O)O [Example 740] |  |  | % inhibition of farnesyltransferase at 1 × 10^-7 M: 94%
CSCC[C@H](NC(=O)c1ccc(CSc2ccc(C)cc2C)cc1-c1ccccc1C)C(=O)O [Example 741] |  |  | % inhibition of farnesyltransferase at 1 × 10^-7 M: 89%
CSCC[C@H](NC(=O)c1ccc(CSc2nc(C)cc(C)n2)cc1-c1ccccc1C)C(=O)O [Example 743] |  |  | % inhibition of farnesyltransferase at 1 × 10^-7 M: 51%
CSCC[C@H](NC(=O)c1ccc(CSc2nc(O)cc(Cc3ccccc3)n2)cc1-c1ccccc1C)C(=O)O [Example 744] | 84% |  | 
CSCC[C@H](NC(=O)c1ccc(CSc2nc3ccccc3c(=O)[nH]2)cc1-c1ccccc1C)C(=O)O [Example 745] |  |  | % inhibition of farnesyltransferase at 1 × 10^-7 M: 93%
CSCC[C@H](NC(=O)c1ccc(CSc2ncnc3[nH]ncc23)cc1-c1ccccc1C)C(=O)O [Example 746] |  |  | % inhibition of farnesyltransferase at 1 × 10^-7 M: 84%
CSCC[C@H](NC(=O)c1ccc(CSc2ncnc3[nH]cnc23)cc1-c1ccccc1C)C(=O)O [Example 747] |  |  | % inhibition of farnesyltransferase at 1 × 10^-7 M: 68%
CSCC[C@H](NC(=O)c1ccc(NC(=O)CN)cc1-c1ccccc1)C(=O)O [Example 748] |  |  | % inhibition of farnesyltransferase at 1 × 10^-7 M: 56%
CNCC(=O)Nc1ccc(C(=O)N[C@@H](CCSC)C(=O)O)c(-c2ccccc2)c1 [Example 749] | 84% |  | 

Further lines, with some results ahead:

% inhibition of farnesyltransferase at 1 × 10^-6 M | % inhibition of farnesyltransferase at 1 × 10^-5 M | SMILES | also measured
83% |  | CSCC[C@H](NC(=O)c1ccc(CNCCSc2ccccc2)cc1-c1ccccc1)C(=O)O [Example 667] | 
36% |  | CSCC[C@H](NC(=O)c1ccc(CNc2ccccc2CCO)cc1-c1ccccc1)C(=O)O [Example 671] | 
 | 48% | CSCC[C@H](NC(=O)c1ccc(CNc2ccccc2N(C)C)cc1-c1ccccc1)C(=O)O [Example 672] | 
59% |  | CSCC[C@H](NC(=O)c1ccc(CNc2ccccc2N2CCCCC2)cc1-c1ccccc1)C(=O)O [Example 673] | 
 | 40% | CSCC[C@H](NC(=O)c1ccc(CNc2cccc(C)c2)cc1-c1ccccc1)C(=O)O [Example 674] | 
 | 76% | CSCC[C@H](NC(=O)c1ccc(CNc2cccc(O)c2)cc1-c1ccccc1)C(=O)O [Example 676] | 
37% |  | CSCC[C@H](NC(=O)c1ccc(CNc2cccc(I)c2)cc1-c1ccccc1)C(=O)O [Example 677] | 
 | 58% | CSCC[C@H](NC(=O)c1ccc(CNc2cccc(CO)c2)cc1-c1ccccc1)C(=O)O [Example 680] | 
31% |  | CSCC[C@H](NC(=O)c1ccc(CNc2cccc(C(N)=O)c2)cc1-c1ccccc1)C(=O)O [Example 682] | 
 | 57% | CSCC[C@H](NC(=O)c1ccc(CNc2cccc(N(C)C)c2)cc1-c1ccccc1)C(=O)O [Example 683] | 
 | 48% | CSCC[C@H](NC(=O)c1ccc(CNc2cccc(CC(=O)O)c2)cc1-c1ccccc1)C(=O)O [Example 684] | 
 | 55% | CSCC[C@H](NC(=O)c1ccc(CNc2cccc(CCC(=O)O)c2)cc1-c1ccccc1)C(=O)O [Example 685] | 
 | 48% | CSCC[C@H](NC(=O)c1ccc(CNc2cccc(Oc3ccccc3)c2)cc1-c1ccccc1)C(=O)O [Example 686] | 
 | 78% | CSCC[C@H](NC(=O)c1ccc(CNc2ccc(F)cc2)cc1-c1ccccc1)C(=O)O [Example 687] | 
 | 71% | CSCC[C@H](NC(=O)c1ccc(CNc2ccc(I)cc2)cc1-c1ccccc1)C(=O)O [Example 688] | 
 | 73% | CSCC[C@H](NC(=O)c1ccc(CNc2ccc(O)cc2)cc1-c1ccccc1)C(=O)O [Example 689] | 
 | 61% | COc1ccc(NCc2ccc(C(=O)N[C@@H](CCSC)C(=O)O)c(-c3ccccc3)c2)cc1 [Example 690] | 
 | 74% | CSCC[C@H](NC(=O)c1ccc(CNc2ccc(C(C)C)cc2)cc1-c1ccccc1)C(=O)O [Example 692] | 
45% |  | CSCC[C@H](NC(=O)c1ccc(CNc2ccc(CCO)cc2)cc1-c1ccccc1)C(=O)O [Example 694] | 
 | 68% | CSCC[C@H](NC(=O)c1ccc(CNc2ccc(-c3ccccc3)cc2)cc1-c1ccccc1)C(=O)O [Example 700] | 
 | 64% | CSCC[C@H](NC(=O)c1ccc(CNc2ccc(Oc3ccccc3)cc2)cc1-c1ccccc1)C(=O)O [Example 701] | 
 | 79% | CSCC[C@H](NC(=O)c1ccc(CNc2ccc(C(=O)c3ccccc3)cc2)cc1-c1ccccc1)C(=O)O [Example 702] | 
 | 67% | CSCC[C@H](NC(=O)c1ccc(CNc2ccc(C)c(C)c2)cc1-c1ccccc1)C(=O)O [Example 704] | 
 | 53% | CSCC[C@H](NC(=O)c1ccc(CNc2ccc3c(c2)Cc2ccccc2-3)cc1-c1ccccc1)C(=O)O [Example 706] | 
 | 76% | CSCC[C@H](NC(=O)c1ccc(CNc2ccc3ncccc3c2)cc1-c1ccccc1)C(=O)O [Example 708] | 
 | 69% | CSCC[C@H](NC(=O)c1ccc(CNCc2cc(Cl)cc(Cl)c2)cc1-c1ccccc1)C(=O)O [Example 712] | 
 | 40% | CSCC[C@H](NC(=O)c1ccc(CNC(CO)C(O)c2ccccc2)cc1-c1ccccc1)C(=O)O (some centres unmarked) [Example 713] | 
 | 56% | CSCC[C@H](NC(=O)c1ccc(CNC(CO)Cc2ccccc2)cc1-c1ccccc1)C(=O)O (some centres unmarked) [Example 714] | 
 | 40% | CSCC[C@H](NC(=O)c1ccc(CNCCCCc2ccccc2)cc1-c1ccccc1)C(=O)O [Example 718] | 
95% |  | CSCC[C@H](NC(=O)c1ccc(CN[C@H](CO)Cc2ccccc2)cc1-c1ccccc1C)C(=O)O [Example 727] | 
